One assay deals with CDK7H (Homo sapiens, UniProt P50613). The experiment in a line: Kinase assay CDK7H (radiometric profiling service). Conditions: apparent Ki calculated from Km (ATP) and IC50; read-out: CDK inhibition Ki CDK7H. It counts as biochemical. The gist of the method: (§1)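 Compounds were diluted 1:3 over 10 concentrations (10 μM to 0.5 nM). CDK4/D1 reactions with RB-CTF substrate were started with ATP, run 40 min at 37° C, then quenched and detected by ADP-Glo luminescence. CDK7, CDK2 and CDK1 were tested radiometrically by a service. IC50 was fitted by logistic regression.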

The subject of another assay is D283. Description: Cell viability assay, medulloblastoma D283. It counts as cell-based. As to conditions: Homo sapiens, read-out: Antiproliferative activity GI50 D283. An excerpt:
(§2) Compounds from Example 1 were subjected to a standard MTT (3-(4,5-dimethylthiazol-2-yl)-2,5-diphenyltetrazolium bromide) and resazurin assays on solid tumour cell lines and leukemia cell lines, respectively, as previously reported (Wang S et al., J Med Chem 47:1662-1675, 2004 and Diab S. et al. CheMedChem 9:962-972, 2014).

A further assay deals with T1, CDK9T1 (Homo sapiens, UniProt P50750).
T1 construct: purchased Eurofins Pharma Discovery or Reaction Biology Corporation (service)
The experiment in a line: Kinase assay CDK9/T1 (radiometric or ADP Glo). The assay is classed as biochemical. Conditions: apparent Ki calculated from Km (ATP) and IC50; read-out: CDK inhibition Ki CDK9T1. In outline: (§3)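 Radiometric inhibition data for CDKs came from Eurofins or Reaction Biology profiling services; CDK4/D1 was also run in-house by ADP-Glo in […] pH 7.5, 20 mM MgCl2, 0.4 mM DTT, 0.1 mg/ml BSA with RB-CTF substrate, 40 min at 37 °C after ATP start. Ten-point 1:3 dilutions (10 μM–0.5 nM); four-parameter IC50, Ki from IC50 and ATP Km.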

A further assay deals with D458. Description: Cell viability assay, medulloblastoma D458. The assay is classed as cell-based. As to conditions: Homo sapiens, 72 h, read-out: Antiproliferative activity GI50 D458.
Excerpt: as §2

The next assay has as its system MV4-11. The experiment in a line: Cell viability assay (resazurin, leukemia cell line) MV4-11. It counts as cell-based, human.
Excerpt: as §2
A general note: The colour change of resazurin is a common sign of viable cells or microbes.

For the next assay, the target named is T2, CDK6D3 (Homo sapiens, UniProt Q00534).
T2 construct: purchased Eurofins Pharma Discovery or Reaction Biology Corporation (service)
The experiment in a line: Kinase assay CDK6/D3 (radiometric or ADP Glo). The assay is classed as biochemical. As to conditions: apparent Ki calculated from Km (ATP) and IC50; read-out: CDK inhibition Ki CDK6D3. The gist of the method: as §3

The target of the next assay is CDK 2A (Homo sapiens, UniProt P24941). The experiment in a line: Kinase assay CDK2A (radiometric profiling service). It counts as biochemical. Conditions: apparent Ki calculated from Km (ATP) and IC50; read-out: CDK inhibition Ki CDK 2A. The gist of the method:
as §1

The next assay deals with T3, CDK4D1 (Homo sapiens, UniProt P11802).
T3 construct: purchased Eurofins Pharma Discovery or Reaction Biology Corporation (service)
Description: Kinase assay CDK4/D1 (radiometric or ADP Glo). The assay is classed as biochemical. As to conditions: apparent Ki calculated from Km (ATP) and IC50; read-out: CDK inhibition Ki CDK4D1. The gist of the method:
as §1

The next assay has as its system A2780. Description: Cell viability assay, ovarian A2780. As to conditions: Homo sapiens, read-out: Antiproliferative activity GI50 A2780. It counts as cell-based.
Excerpt: as §2

In the next assay the target is CDK1B (Homo sapiens, UniProt P06493). The experiment in a line: Kinase assay CDK1B (radiometric profiling service). Conditions: apparent Ki calculated from Km (ATP) and IC50; read-out: CDK inhibition Ki CDK1B. It counts as biochemical. In outline:
as §1

The test system of the next assay is MDA-MB-453. Description: Cell viability assay (MTT, solid tumour cell line) MDA-MB-453. It counts as cell-based, human.
Excerpt: as §2

The mark [1] stands for this setting: Homo sapiens, MV4-11, 72 h; read-out: Anti-proliferative activity GI50 MV4-11.
Where [2] appears, read: Homo sapiens, MDA-MB-453, 72 h; read-out: Anti-proliferative activity GI50 MDA-MB-453.

Like-named read-outs stand apart in the source and are kept apart here. Bounds are passed on as bounds.

In patent publication USRE49850E1, “N-(pyridin-2-yl)-4-(thiazol-5-yl)pyrimidin-2-amine derivatives as therapeutic compounds” (AUCENTRA THERAPEUTICS PTY LTD, priority 2015, dated 2024) one finds Ki and GI50 data, which are given here for 14 compounds.

T3 sequence (P11802 whole entry): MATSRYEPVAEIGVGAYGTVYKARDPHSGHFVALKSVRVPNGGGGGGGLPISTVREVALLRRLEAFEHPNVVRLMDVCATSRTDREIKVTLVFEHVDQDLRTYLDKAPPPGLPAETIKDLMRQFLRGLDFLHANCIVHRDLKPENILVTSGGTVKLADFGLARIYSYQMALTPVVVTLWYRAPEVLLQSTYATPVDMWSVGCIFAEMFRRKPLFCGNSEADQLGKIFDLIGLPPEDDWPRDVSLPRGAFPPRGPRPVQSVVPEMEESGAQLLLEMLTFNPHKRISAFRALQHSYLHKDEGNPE
T3 sequence (P24385 whole entry partner): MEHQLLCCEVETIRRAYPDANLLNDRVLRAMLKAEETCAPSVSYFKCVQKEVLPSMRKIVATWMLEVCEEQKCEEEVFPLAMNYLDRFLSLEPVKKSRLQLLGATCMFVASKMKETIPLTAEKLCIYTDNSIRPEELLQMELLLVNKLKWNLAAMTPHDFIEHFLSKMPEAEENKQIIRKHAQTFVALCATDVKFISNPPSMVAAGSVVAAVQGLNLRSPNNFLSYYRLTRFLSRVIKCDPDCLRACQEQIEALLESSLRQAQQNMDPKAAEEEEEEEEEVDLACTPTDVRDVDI
T1 sequence (P50750 whole entry): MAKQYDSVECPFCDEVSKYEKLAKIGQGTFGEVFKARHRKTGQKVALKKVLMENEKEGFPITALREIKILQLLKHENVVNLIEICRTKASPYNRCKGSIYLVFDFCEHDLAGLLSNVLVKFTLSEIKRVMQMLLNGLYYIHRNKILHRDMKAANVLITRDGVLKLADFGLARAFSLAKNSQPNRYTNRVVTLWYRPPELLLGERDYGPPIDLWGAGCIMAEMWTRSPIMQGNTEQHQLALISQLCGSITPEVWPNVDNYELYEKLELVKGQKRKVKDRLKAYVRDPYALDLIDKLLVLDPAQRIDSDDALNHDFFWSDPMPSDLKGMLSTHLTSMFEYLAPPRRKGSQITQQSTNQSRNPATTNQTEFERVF
T1 sequence (O60563 whole entry partner): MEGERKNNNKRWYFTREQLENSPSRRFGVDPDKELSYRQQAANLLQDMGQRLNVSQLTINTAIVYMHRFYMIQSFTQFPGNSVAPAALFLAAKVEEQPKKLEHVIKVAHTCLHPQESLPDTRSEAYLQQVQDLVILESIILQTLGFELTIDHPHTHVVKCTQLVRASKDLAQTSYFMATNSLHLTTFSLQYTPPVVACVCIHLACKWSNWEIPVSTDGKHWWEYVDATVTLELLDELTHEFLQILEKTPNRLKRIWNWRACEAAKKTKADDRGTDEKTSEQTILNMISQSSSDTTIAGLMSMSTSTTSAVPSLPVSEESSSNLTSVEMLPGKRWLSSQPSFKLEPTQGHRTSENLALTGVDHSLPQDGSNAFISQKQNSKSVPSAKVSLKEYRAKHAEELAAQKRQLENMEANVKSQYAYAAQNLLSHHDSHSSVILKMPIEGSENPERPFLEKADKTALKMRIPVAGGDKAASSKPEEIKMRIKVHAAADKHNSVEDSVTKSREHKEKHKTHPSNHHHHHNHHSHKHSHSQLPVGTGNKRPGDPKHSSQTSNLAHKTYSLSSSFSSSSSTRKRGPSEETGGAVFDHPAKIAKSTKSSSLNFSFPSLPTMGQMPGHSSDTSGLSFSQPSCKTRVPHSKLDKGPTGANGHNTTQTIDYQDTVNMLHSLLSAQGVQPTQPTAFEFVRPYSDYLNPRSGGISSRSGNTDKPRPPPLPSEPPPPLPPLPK
Chain of CDK7H (P50613 whole entry): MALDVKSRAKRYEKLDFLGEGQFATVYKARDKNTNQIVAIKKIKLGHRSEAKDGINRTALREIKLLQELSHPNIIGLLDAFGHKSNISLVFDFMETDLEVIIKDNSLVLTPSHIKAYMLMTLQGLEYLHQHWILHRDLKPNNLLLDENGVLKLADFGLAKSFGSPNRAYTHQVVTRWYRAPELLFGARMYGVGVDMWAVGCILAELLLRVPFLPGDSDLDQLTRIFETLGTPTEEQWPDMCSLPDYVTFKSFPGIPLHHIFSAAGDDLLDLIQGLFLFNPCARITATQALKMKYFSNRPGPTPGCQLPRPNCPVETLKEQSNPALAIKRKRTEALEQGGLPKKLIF
Chain of CDK7H (P51946 whole entry partner): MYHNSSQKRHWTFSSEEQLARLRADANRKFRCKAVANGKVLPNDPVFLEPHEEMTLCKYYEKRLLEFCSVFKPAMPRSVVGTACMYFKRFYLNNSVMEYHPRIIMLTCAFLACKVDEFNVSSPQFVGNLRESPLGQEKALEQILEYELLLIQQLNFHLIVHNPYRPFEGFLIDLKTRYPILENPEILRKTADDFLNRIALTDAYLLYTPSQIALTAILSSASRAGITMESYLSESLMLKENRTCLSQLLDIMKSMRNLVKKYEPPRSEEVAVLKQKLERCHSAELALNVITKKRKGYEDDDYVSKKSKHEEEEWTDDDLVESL
Chain of CDK7H (P51948 whole entry partner): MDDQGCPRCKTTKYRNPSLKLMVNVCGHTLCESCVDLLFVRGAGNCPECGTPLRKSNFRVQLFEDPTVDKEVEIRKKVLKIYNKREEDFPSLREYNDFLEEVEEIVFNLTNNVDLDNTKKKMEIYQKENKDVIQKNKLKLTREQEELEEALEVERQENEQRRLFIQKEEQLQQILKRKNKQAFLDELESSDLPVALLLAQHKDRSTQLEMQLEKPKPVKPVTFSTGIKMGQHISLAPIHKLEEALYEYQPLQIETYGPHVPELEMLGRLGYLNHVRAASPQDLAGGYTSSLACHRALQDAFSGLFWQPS
T2 sequence (Q00534 whole entry): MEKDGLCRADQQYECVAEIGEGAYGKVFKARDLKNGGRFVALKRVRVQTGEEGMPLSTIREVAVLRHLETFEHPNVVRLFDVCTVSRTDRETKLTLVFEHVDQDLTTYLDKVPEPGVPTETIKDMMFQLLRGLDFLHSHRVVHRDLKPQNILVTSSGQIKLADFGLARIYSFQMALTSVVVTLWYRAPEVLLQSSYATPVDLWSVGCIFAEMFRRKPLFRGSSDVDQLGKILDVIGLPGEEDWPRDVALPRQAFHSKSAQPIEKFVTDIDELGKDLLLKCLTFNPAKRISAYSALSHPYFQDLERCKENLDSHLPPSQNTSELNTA
T2 sequence (P30281 whole entry partner): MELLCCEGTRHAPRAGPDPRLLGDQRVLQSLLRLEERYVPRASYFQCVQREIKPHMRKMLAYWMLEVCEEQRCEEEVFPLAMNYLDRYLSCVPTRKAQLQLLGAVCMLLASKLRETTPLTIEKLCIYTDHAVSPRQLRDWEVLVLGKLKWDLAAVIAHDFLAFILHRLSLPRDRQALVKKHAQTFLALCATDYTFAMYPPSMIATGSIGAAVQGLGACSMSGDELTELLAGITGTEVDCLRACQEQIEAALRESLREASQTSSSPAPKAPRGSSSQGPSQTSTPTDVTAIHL
Chain of CDK1B (P06493 whole entry): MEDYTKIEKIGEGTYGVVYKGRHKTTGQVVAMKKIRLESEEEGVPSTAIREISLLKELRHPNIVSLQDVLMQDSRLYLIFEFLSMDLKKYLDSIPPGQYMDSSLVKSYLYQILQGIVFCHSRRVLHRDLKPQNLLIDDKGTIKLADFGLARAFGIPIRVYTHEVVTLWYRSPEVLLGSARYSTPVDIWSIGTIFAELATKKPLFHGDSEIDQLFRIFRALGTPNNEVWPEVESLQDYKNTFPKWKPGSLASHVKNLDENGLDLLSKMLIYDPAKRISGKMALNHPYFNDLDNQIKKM
Chain of CDK1B (P14635 whole entry partner): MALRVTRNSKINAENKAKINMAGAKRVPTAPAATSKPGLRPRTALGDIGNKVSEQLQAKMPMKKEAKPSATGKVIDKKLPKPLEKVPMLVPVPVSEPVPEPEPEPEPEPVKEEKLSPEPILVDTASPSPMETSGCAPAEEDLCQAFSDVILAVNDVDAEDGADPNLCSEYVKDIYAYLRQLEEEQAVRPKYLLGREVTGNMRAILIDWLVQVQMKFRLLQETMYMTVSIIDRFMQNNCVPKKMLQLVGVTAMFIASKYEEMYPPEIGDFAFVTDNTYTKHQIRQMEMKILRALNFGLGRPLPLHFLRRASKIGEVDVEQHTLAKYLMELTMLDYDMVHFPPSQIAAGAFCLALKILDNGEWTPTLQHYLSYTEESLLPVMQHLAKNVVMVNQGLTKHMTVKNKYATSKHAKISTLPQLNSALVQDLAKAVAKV

On to `CNc1nc(C)c(-c2ccnc(Nc3ccc(N4CCN(C)CC4)cn3)n2)s1` [Compound 29, N,4-dimethyl-5-(2-((5-(4-methylpiperazin-1-yl)pyridin-2-yl)amino)pyrimidin-4-yl)thiazol-2-amine], for which the Ki at CDK7H is over 5000 nM; on CDK9T1 it was 1820 nM; on CDK6D3, 50 nM; at CDK 2A, 650 nM; on CDK4D1, 5 nM; on CDK1B, 3210 nM. The 50% growth inhibitory concentration (GI50) (as a rule, the concentration that inhibits growth by half) in the assay on D283 (D283, 72 h) was 335 ± 97 nM; in the assay on D458, 326 ± 29 nM; in the assay on MV4-11 (Homo sapiens, MV4-11, 72 h, read-out: Anti-proliferative activity GI50 MV4-11) it was 297 ± 61 nM; in the assay on A2780 (A2780, 72 h), 282 ± 58 nM; in the assay with MDA-MB-453 (Homo sapiens, MDA-MB-453, 72 h, read-out: Anti-proliferative activity GI50 MDA-MB-453) it was 544 ± 78 nM.
In the case of `Cc1nc(N(C)C)sc1-c1ccnc(Nc2ccc(N3CCNCC3)cn2)n1` [Compound 43, N,N,4-trimethyl-5-(2-((5-(piperazin-1-yl)pyridin-2-yl)amino)pyrimidin-4-yl)thiazol-2-amine], the Ki was over 5000 nM at CDK7H; over 5000 nM on CDK9T1; 56 nM at CDK6D3; 903 nM on CDK 2A; 21 nM on CDK4D1; over 5000 nM on CDK1B. The GI50 with MV4-11 (setting [1]) is 11 ± 21 nM; with MDA-MB-453 (setting [2]), 894 ± 91 nM.
Consider `CC(=O)N1CCN(c2ccc(Nc3nccc(-c4sc(C(C)C)nc4C)n3)nc2)CC1` [Compound 16, 1-(4-(6-((4-(2-isopropyl-4-methylthiazol-5-yl)pyrimidin-2-yl)amino)pyridin-3-yl)piperazin-1-yl)ethan-1-one], for which the Ki was over 5000 nM on CDK7H; over 5000 nM on CDK9T1; 209 nM on CDK6D3; 246 nM on CDK 2A; 62 nM at CDK4D1; 4850 nM on CDK1B. The GI50 in the assay with MV4-11 (setting [1]) is 457 ± 122 nM; with MDA-MB-453 (setting [2]) it was over 10000 nM.
Regarding `CCc1nc(C)c(-c2ccnc(Nc3ccc(N4CCNCC4)cn3)n2)s1` [Compound 7, 4-(2-ethyl-4-methylthiazol-5-yl)-N-(5-(piperazin-1-yl)pyridin-2-yl)pyrimidin-2-amine], the Ki is over 5000 nM on CDK7H; over 5000 nM on CDK9T1; 237 nM at CDK6D3; 1710 nM on CDK 2A; 59 nM at CDK4D1; over 5000 nM on CDK1B. The concentration for 50% growth inhibition (GI50) turned out to be 606 ± 150 nM in the assay with MV4-11 (setting [1]) and 3860 ± 220 nM in the assay with MDA-MB-453 (setting [2]).
Regarding `Cc1nc(C)c(-c2nc(Nc3ccc(N4CCN(C)CC4)cn3)ncc2C#N)s1` [Compound 5, 4-(2,4-dimethylthiazol-5-yl)-2-((5-(4-methylpiperazin-1-yl)pyridin-2-yl)amino)pyrimidine-5-carbonitrile], the Ki was over 5000 nM on CDK7H; over 5000 nM on CDK9T1; 27 nM on CDK6D3; over 5000 nM on CDK 2A; 70 nM at CDK4D1; over 5000 nM on CDK1B. The results for the GI50 in the assay on MV4-11 (setting [1]) and in the assay on MDA-MB-453 (setting [2]) were 500 ± 247 nM and 914 ± 98 nM, respectively.
With “5-(2-((5-(4-Ethylpiperazin-1-yl)pyridin-2-yl)amino)-5-fluoropyrimidin-4-yl)-N,4-dimethylthiazol-2-amine [Compound 32]”, the Ki at CDK7H was over 5000 nM; on CDK9T1, 2920 nM; at CDK6D3, 20 nM; at CDK 2A it was 665 nM; at CDK4D1 it was 5 nM; on CDK1B, over 5000 nM. The GI50 in the assay with MV4-11 (72 h; read-out: Anti-proliferative activity GI50 MV4-11) came to 65 ± 2 nM; in the assay on MDA-MB-453 (72 h; read-out: Anti-proliferative activity GI50 MDA-MB-453) it was 528 ± 46 nM.
Consider `CC(=O)N1CCN(c2ccc(Nc3nccc(-c4sc(SC(C)C)nc4C)n3)nc2)CC1` [Compound 25, 1-(4-(6-((4-(2-(isopropylthio)-4-methylthiazol-5-yl)pyrimidin-2-yl)amino)pyridin-3-yl)piperazin-1-yl)ethan-1-one], for which the Ki on CDK7H was over 5000 nM; at CDK9T1, over 5000 nM; on CDK6D3 it was 20 nM; at CDK 2A, 75 nM; on CDK4D1, 5 nM; at CDK1B, over 5000 nM. Besides, the concentration for 50% growth inhibition (GI50) turned out to be 537 ± 117 nM in the assay with MV4-11 (setting [1]) and 514 ± 50 nM with MDA-MB-453 (setting [2]).
Take `CNc1nc(C)c(-c2ccnc(Nc3ccc(N4CCN(C(C)=O)CC4)cn3)n2)s1` [Compound 33, 1-(4-(6-((4-(4-methyl-2-(methylamino)thiazol-5-yl)pyrimidin-2-yl)amino)pyridin-3-yl)piperazin-1-yl)ethan-1-one]: the Ki on CDK7H was over 5000 nM; on CDK9T1, over 5000 nM; on CDK6D3, 3030 nM; at CDK 2A it was 310 nM; at CDK4D1, 578 nM; at CDK1B it was 3100 nM. In addition, the values for the concentration for 50% growth inhibition (GI50) with MV4-11 (setting [1]) and with MDA-MB-453 (setting [2]) were 154 ± 74 nM and 5840 ± 279 nM, respectively.
For the compound `Cc1nc(N(C)C)sc1-c1nc(Nc2ccc(N3CCNCC3)cn2)ncc1F` [Compound 44, 5-(5-fluoro-2-((5-(piperazin-1-yl)pyridin-2-yl)amino)pyrimidin-4-yl)-N,N,4-trimethylthiazol-2-amine], the Ki is over 5000 nM at CDK7H; over 5000 nM at CDK9T1; 40 nM at CDK6D3; 335 nM on CDK 2A; 4 nM on CDK4D1; over 5000 nM at CDK1B. Also, the concentration for 50% growth inhibition (GI50) amounted to 48 ± 4 nM in the assay on MV4-11 (setting [1]) and 237 ± 44 nM in the assay on MDA-MB-453 (setting [2]).
With `CSc1nc(C)c(-c2ccnc(Nc3ccc(N4CCN(C)CC4)cn3)n2)s1` [Compound 21, 4-(4-methyl-2-(methylthio)thiazol-5-yl)-N-(5-(4-methylpiperazin-1-yl)pyridin-2-yl)pyrimidin-2-amine], the Ki was over 5000 nM at CDK7H; over 5000 nM on CDK9T1; 42 nM at CDK6D3; 2700 nM on CDK 2A; 7 nM at CDK4D1; over 5000 nM on CDK1B. Moreover, the GI50 in the assay with MV4-11 (setting [1]) is 456 ± 66 nM; in the assay on MDA-MB-453 (setting [2]), 7160 ± 886 nM.
In the case of `CC(=O)N1CCN(c2ccc(Nc3ncc(F)c(-c4sc(N(C)C)nc4C)n3)nc2)CC1` [Compound 49, 1-(4-(6-((4-(2-(dimethylamino)-4-methylthiazol-5-yl)-5-fluoropyrimidin-2-yl)amino)pyridin-3-yl)piperazin-1-yl)ethan-1-one], the Ki was over 5000 nM at CDK7H; over 5000 nM at CDK9T1; 366 nM at CDK6D3; 1040 nM at CDK 2A; 24 nM on CDK4D1; over 5000 nM at CDK1B. In addition, the 50% growth inhibitory concentration (GI50) with MV4-11 (setting [1]) turned out to be 208 ± 30 nM; in the assay on MDA-MB-453 (setting [2]) it was 2370 ± 26 nM.
As for `Cc1nc(NC2CCCC2)sc1-c1nc(Nc2ccc(N3CCN(C)CC3)cn2)ncc1F` [Compound 64], the 50% growth inhibitory concentration (GI50) is 77 ± 6 nM in the assay on D283 (D283, 72 h, Medulloblastoma); 457 ± 171 nM in the assay on D458 (Medulloblastoma); 73 ± 28 nM in the assay on MV4-11 (setting [1]); 56 ± 7 nM with A2780 (A2780, 72 h, Ovarian); 202 ± 30 nM in the assay on MDA-MB-453 (setting [2]).
For `CCc1nc(C)c(-c2ccnc(Nc3ccc(N4CCN(C)CC4)cn3)n2)s1` [Compound 8, 4-(2-ethyl-4-methylthiazol-5-yl)-N-(5-(4-methylpiperazin-1-yl)pyridin-2-yl)pyrimidin-2-amine], the Ki on CDK7H is over 5000 nM; at CDK9T1, over 5000 nM; at CDK6D3, 980 nM; at CDK 2A, 1820 nM; at CDK4D1 it was 24 nM; on CDK1B it was over 5000 nM. Besides, the concentration for 50% growth inhibition (GI50) in the assay on MV4-11 (setting [1]) was 750 ± 246 nM; with MDA-MB-453 (setting [2]) it was 3010 ± 705 nM.
For `CNc1nc(C)c(-c2nc(Nc3ccc(N4CCN(S(C)(=O)=O)CC4)cn3)ncc2F)s1` [Compound 52, 5-(5-fluoro-2-((5-(4-(methylsulfonyl)piperazin-1-yl)pyridin-2-yl)amino)pyrimidin-4-yl)-N,4-dimethylthiazol-2-amine], the Ki on CDK7H was over 5000 nM; at CDK9T1, over 5000 nM; on CDK6D3, 297 nM; at CDK 2A, 76 nM; at CDK4D1 it was 37 nM; on CDK1B it was 580 nM. Moreover, the 50% growth inhibitory concentration (GI50) in the assay on MV4-11 (setting [1]) was found to be 425 ± 73 nM; in the assay with MDA-MB-453 (setting [2]) it was 660 ± 92 nM.
